Experimental data as given in patent US9738634B2, “Heterocyclic amide compound and herbicide” (SYNGENTA PARTICIPATIONS AG, priority 2013, dated 2017).

Legend:
Assay type in all cases: in vivo
Conditions in all cases: treatment dosage 320 g/ha
[1] = test system: chickweed; experiment: Test Example 4: weedkilling efficacy by foliar treatment; N: chickweed
Method in brief: (§1)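 Seeds are spot-sown into sterilized diluvial soil and covered with about 1.5 cm of soil. After 14 days' greenhouse growth at 25 to 30° C, plants are sprayed on stems and leaves with diluted emulsion at the stated g/ha rate, then scored at 3 weeks.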

[2] = test system: fig-leafed goosefoot; experiment: Test Example 4: weedkilling efficacy by foliar treatment; M: fig-leafed goosefoot
Method in brief: as §1

[3] = test system: transplanted rice; experiment: Test Example 1: preemergent weed treatment in the submerged state, effect on crop; a: transplanted rice
Method in brief: (§2)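 Pre-emergence application onto floodwater (4 cm, alluvial soil) on the day of sowing, dose expressed as g/ha from diluted emulsion formulation. Weeds sown with 2.5-leaf transplanted rice as crop; plants held at 25–30 °C in greenhouse and scored against assessment criteria after 3 weeks.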

[4] = test system: directly sown rice; experiment: Test Example 4: foliar treatment, effect on crop; b: directly sown rice
Method in brief: as §1

[5] = test system: green foxtail; experiment: Test Example 4: weedkilling efficacy by foliar treatment; E: green foxtail
Method in brief: as §1

[6] = test system: barnyard grass; experiment: Test Example 4: weedkilling efficacy by foliar treatment; F: barnyard grass
Method in brief: as §1

[7] = test system: green foxtail; experiment: Test Example 3: weedkilling efficacy through soil treatment; E: green foxtail
Method in brief: (§3)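 Crop and weed responses were judged three weeks after a uniform surface spray of the water-diluted emulsion at the given g/ha rate. Seeds sat beneath about 1.5 cm of sterilized diluvial soil, and boxes stood in a greenhouse at 25 to 30° C.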

[8] = test system: barnyard grass; experiment: Test Example 1: weedkilling efficacy, preemergent weed treatment in the submerged state; A: barnyard grass
Method in brief: as §2

[9] = test system: rapeseed; experiment: Test Example 3: soil treatment, effect on crop; g: rapeseed
Method in brief: as §3

[10] = test system: black-grass; experiment: Test Example 3: weedkilling efficacy through soil treatment; H: black-grass
Method in brief: as §3

[11] = test system: redroot pigweed; experiment: Test Example 3: weedkilling efficacy through soil treatment; L: redroot pigweed
Method in brief: as §3

[12] = test system: chickweed; experiment: Test Example 3: weedkilling efficacy through soil treatment; N: chickweed
Method in brief: as §3

[13] = test system: bulrush; experiment: Test Example 2: weedkilling efficacy, growth period weed treatment in the submerged state; B: bulrush
Method in brief: (§4)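 Weeds treated at the 1-2 leaf stage by application of diluted emulsion onto floodwater (4 cm depth, alluvial soil) at specified g/ha. Grown in greenhouse at 25 to 30° C; herbicidal effect rated three weeks after treatment.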

[14] = test system: soybean; experiment: Test Example 3: soil treatment, effect on crop; d: soybean
Method in brief: as §3

[15] = test system: soybean; experiment: Test Example 4: foliar treatment, effect on crop; d: soybean
Method in brief: as §1

[16] = test system: Indian mallow; experiment: Test Example 4: weedkilling efficacy by foliar treatment; K: Indian mallow
Method in brief: as §1

[17] = test system: rapeseed; experiment: Test Example 4: foliar treatment, effect on crop; g: rapeseed
Method in brief: as §1

[18] = test system: barnyard grass; experiment: Test Example 2: weedkilling efficacy, growth period weed treatment in the submerged state; A: barnyard grass
Method in brief: as §4

[19] = test system: catchweed; experiment: Test Example 3: weedkilling efficacy through soil treatment; O: catchweed
Method in brief: as §3

[20] = test system: common wind-grass; experiment: Test Example 3: weedkilling efficacy through soil treatment; J: common wind-grass
Method in brief: as §3

[21] = test system: Indian mallow; experiment: Test Example 3: weedkilling efficacy through soil treatment; K: Indian mallow
Method in brief: as §3

[22] = test system: redroot pigweed; experiment: Test Example 4: weedkilling efficacy by foliar treatment; L: redroot pigweed
Method in brief: as §1

[23] = test system: crabgrass; experiment: Test Example 4: weedkilling efficacy by foliar treatment; D: crabgrass
Method in brief: as §1

[24] = test system: bulrush; experiment: Test Example 1: weedkilling efficacy, preemergent weed treatment in the submerged state; B: bulrush
Method in brief: as §2

[25] = test system: wheat; experiment: Test Example 3: soil treatment, effect on crop; e: wheat
Method in brief: as §3

[26] = test system: directly sown rice; experiment: Test Example 3: soil treatment, effect on crop; b: directly sown rice
Method in brief: as §3

[27] = test system: beet; experiment: Test Example 4: foliar treatment, effect on crop; f: beet
Method in brief: as §1

[28] = test system: Italian ryegrass; experiment: Test Example 3: weedkilling efficacy through soil treatment; I: Italian ryegrass
Method in brief: as §3

[29] = test system: fig-leafed goosefoot; experiment: Test Example 3: weedkilling efficacy through soil treatment; M: fig-leafed goosefoot
Method in brief: as §3

[30] = test system: oval-leafed pondweed; experiment: Test Example 2: weedkilling efficacy, growth period weed treatment in the submerged state; C: oval-leafed pondweed
Method in brief: as §4

[31] = test system: common wind-grass; experiment: Test Example 4: weedkilling efficacy by foliar treatment; J: common wind-grass
Method in brief: as §1

[32] = test system: beet; experiment: Test Example 3: soil treatment, effect on crop; f: beet
Method in brief: as §3

[33] = test system: black-grass; experiment: Test Example 4: weedkilling efficacy by foliar treatment; H: black-grass
Method in brief: as §1

[34] = test system: wheat; experiment: Test Example 4: foliar treatment, effect on crop; e: wheat
Method in brief: as §1

[35] = test system: Italian ryegrass; experiment: Test Example 4: weedkilling efficacy by foliar treatment; I: Italian ryegrass
Method in brief: as §1

[36] = test system: crabgrass; experiment: Test Example 3: weedkilling efficacy through soil treatment; D: crabgrass
Method in brief: as §3

[37] = test system: wild oat; experiment: Test Example 3: weedkilling efficacy through soil treatment; G: wild oat
Method in brief: as §3

[38] = test system: birds-eye speedwell; experiment: Test Example 3: weedkilling efficacy through soil treatment; p: birds-eye speedwell
Method in brief: as §3

[39] = test system: corn; experiment: Test Example 3: soil treatment, effect on crop; c: corn
Method in brief: as §3

[40] = test system: oval-leafed pondweed; experiment: Test Example 1: weedkilling efficacy, preemergent weed treatment in the submerged state; C: oval-leafed pondweed
Method in brief: as §2

[41] = test system: catchweed; experiment: Test Example 4: weedkilling efficacy by foliar treatment; O: catchweed
Method in brief: as §1

[42] = test system: corn; experiment: Test Example 4: foliar treatment, effect on crop; c: corn
Method in brief: as §1

[43] = test system: barnyard grass; experiment: Test Example 3: weedkilling efficacy through soil treatment; F: barnyard grass
Method in brief: as §3

[44] = test system: wild oat; experiment: Test Example 4: weedkilling efficacy by foliar treatment; G: wild oat
Method in brief: as §1

CC1=C(c2cccnc2F)C(=O)N(C(C)(C)C(=O)Nc2cc(Cl)cc(Br)n2)CO1 [B-2-12]
N (chickweed) weedkilling efficacy grade [1]: 4 (weed kill ratio 70% or more, less than 90%)
M (fig-leafed goosefoot) weedkilling efficacy grade [2]: 4 (weed kill ratio 70% or more, less than 90%)
a (transplanted rice) effect on crop grade [3]: 5 (weed kill ratio 90% or more, (practically complete withering))
b (directly sown rice) effect on crop grade [4]: 5 (weed kill ratio 90% or more, (practically complete withering))
E (green foxtail) weedkilling efficacy grade [5]: 5 (weed kill ratio 90% or more, (practically complete withering))
F (barnyard grass) weedkilling efficacy grade [6]: 5 (weed kill ratio 90% or more, (practically complete withering))
E (green foxtail) weedkilling efficacy grade [7]: 5 (weed kill ratio 90% or more, (practically complete withering))
A (barnyard grass) weedkilling efficacy grade [8]: 5 (weed kill ratio 90% or more, (practically complete withering))
g (rapeseed) effect on crop grade [9]: 0 (weed kill ratio 5% or less (practically no effect))
H (black-grass) weedkilling efficacy grade [10]: 5 (weed kill ratio 90% or more, (practically complete withering))
L (redroot pigweed) weedkilling efficacy grade [11]: 0 (weed kill ratio 5% or less (practically no effect))
N (chickweed) weedkilling efficacy grade [12]: 4 (weed kill ratio 70% or more, less than 90%)
B (bulrush) weedkilling efficacy grade [13]: 5 (weed kill ratio 90% or more, (practically complete withering))
d (soybean) effect on crop grade [14]: 0 (weed kill ratio 5% or less (practically no effect))
d (soybean) effect on crop grade [15]: 4 (weed kill ratio 70% or more, less than 90%)
K (Indian mallow) weedkilling efficacy grade [16]: 5 (weed kill ratio 90% or more, (practically complete withering))
g (rapeseed) effect on crop grade [17]: 4 (weed kill ratio 70% or more, less than 90%)
A (barnyard grass) weedkilling efficacy grade [18]: 5 (weed kill ratio 90% or more, (practically complete withering))
O (catchweed) weedkilling efficacy grade [19]: 2 (weed kill ratio 20% or more, less than 40%)
J (common wind-grass) weedkilling efficacy grade [20]: 5 (weed kill ratio 90% or more, (practically complete withering))
K (Indian mallow) weedkilling efficacy grade [21]: 0 (weed kill ratio 5% or less (practically no effect))
L (redroot pigweed) weedkilling efficacy grade [22]: 4 (weed kill ratio 70% or more, less than 90%)
D (crabgrass) weedkilling efficacy grade [23]: 5 (weed kill ratio 90% or more, (practically complete withering))
B (bulrush) weedkilling efficacy grade [24]: 5 (weed kill ratio 90% or more, (practically complete withering))
e (wheat) effect on crop grade [25]: 0 (weed kill ratio 5% or less (practically no effect))
b (directly sown rice) effect on crop grade [26]: 3 (weed kill ratio 40% or more, less than 70%)
f (beet) effect on crop grade [27]: 4 (weed kill ratio 70% or more, less than 90%)
I (Italian ryegrass) weedkilling efficacy grade [28]: 5 (weed kill ratio 90% or more, (practically complete withering))
M (fig-leafed goosefoot) weedkilling efficacy grade [29]: 3 (weed kill ratio 40% or more, less than 70%)
C (oval-leafed pondweed) weedkilling efficacy grade [30]: 5 (weed kill ratio 90% or more, (practically complete withering))
J (common wind-grass) weedkilling efficacy grade [31]: 5 (weed kill ratio 90% or more, (practically complete withering))
f (beet) effect on crop grade [32]: 0 (weed kill ratio 5% or less (practically no effect))
H (black-grass) weedkilling efficacy grade [33]: 5 (weed kill ratio 90% or more, (practically complete withering))
e (wheat) effect on crop grade [34]: 0 (weed kill ratio 5% or less (practically no effect))
I (Italian ryegrass) weedkilling efficacy grade [35]: 5 (weed kill ratio 90% or more, (practically complete withering))
D (crabgrass) weedkilling efficacy grade [36]: 5 (weed kill ratio 90% or more, (practically complete withering))
G (wild oat) weedkilling efficacy grade [37]: 1 (weed kill ratio 5% or more, less than 20%)
P (birds-eye speedwell) weedkilling efficacy grade [38]: 4 (weed kill ratio 70% or more, less than 90%)
c (corn) effect on crop grade [39]: 0 (weed kill ratio 5% or less (practically no effect))
C (oval-leafed pondweed) weedkilling efficacy grade [40]: 5 (weed kill ratio 90% or more, (practically complete withering))
O (catchweed) weedkilling efficacy grade [41]: 4 (weed kill ratio 70% or more, less than 90%)
c (corn) effect on crop grade [42]: 4 (weed kill ratio 70% or more, less than 90%)
F (barnyard grass) weedkilling efficacy grade [43]: 5 (weed kill ratio 90% or more, (practically complete withering))
G (wild oat) weedkilling efficacy grade [44]: 4 (weed kill ratio 70% or more, less than 90%)
